In patent US10357484B2, “Heterocyclic compound” (Takeda Pharmaceutical Company Limited, priority 2015, dated 2019):

Legend:
Type in all cases: biochemical
HDAC6 enzyme = biological target: T1, HDAC6 enzyme (Homo sapiens, UniProt Q9UBN7); assay: HDAC6 enzyme inhibitory assay (HDAC-Glo I/II Assay kit); details: 1 μM test compound; wells without enzyme = 100% inhibition; read-out: HDAC6 inhibitory rate (%) (1 μM)
T1 construct: transducing full length HDAC1 and HDAC6 genes into Sf-9 insect cells; GST; purchased SignalChem; host or cells: Sf-9 insect cells
T1 sequence (Q9UBN7 1-1215): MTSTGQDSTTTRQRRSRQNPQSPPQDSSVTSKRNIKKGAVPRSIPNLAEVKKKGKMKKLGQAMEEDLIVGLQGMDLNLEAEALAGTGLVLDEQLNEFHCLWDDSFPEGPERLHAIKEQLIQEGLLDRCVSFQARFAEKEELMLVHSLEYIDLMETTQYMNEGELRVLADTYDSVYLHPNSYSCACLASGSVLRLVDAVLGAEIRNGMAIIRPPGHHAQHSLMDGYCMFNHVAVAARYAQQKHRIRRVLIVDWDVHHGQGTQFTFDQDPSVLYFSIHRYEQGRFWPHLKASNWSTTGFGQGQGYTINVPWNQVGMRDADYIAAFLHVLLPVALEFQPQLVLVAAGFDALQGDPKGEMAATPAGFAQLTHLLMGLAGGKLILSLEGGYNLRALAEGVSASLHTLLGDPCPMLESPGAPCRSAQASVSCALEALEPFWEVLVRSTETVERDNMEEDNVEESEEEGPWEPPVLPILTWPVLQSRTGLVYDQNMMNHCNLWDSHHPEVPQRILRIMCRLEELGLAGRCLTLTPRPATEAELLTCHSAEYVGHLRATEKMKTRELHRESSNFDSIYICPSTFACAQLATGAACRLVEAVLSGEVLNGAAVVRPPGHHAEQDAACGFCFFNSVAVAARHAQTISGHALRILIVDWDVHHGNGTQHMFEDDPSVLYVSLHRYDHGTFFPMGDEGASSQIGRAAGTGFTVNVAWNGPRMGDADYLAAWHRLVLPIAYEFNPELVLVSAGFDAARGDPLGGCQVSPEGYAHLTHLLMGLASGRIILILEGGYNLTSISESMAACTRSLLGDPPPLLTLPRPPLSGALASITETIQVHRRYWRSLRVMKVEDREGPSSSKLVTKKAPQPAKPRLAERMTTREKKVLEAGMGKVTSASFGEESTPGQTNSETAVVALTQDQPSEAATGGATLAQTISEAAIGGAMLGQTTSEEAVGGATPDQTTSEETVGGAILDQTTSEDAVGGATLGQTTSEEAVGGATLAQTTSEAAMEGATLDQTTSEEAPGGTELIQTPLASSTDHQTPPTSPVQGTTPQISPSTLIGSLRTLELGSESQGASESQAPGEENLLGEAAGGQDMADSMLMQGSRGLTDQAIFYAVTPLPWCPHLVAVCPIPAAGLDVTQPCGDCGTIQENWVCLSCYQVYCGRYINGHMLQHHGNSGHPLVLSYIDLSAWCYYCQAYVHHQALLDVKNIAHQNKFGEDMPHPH
Description: (§1) HDAC1/6 Enzyme Inhibitory Assay
(§2) HDAC1 enzyme and HDAC6 enzyme each prepared by transducing full length HDAC1 and HDAC6 genes into Sf-9 insect cells and purifying by GST affinity column were purchased from SignalChem. Using these enzymes, HDAC1 and/or HDAC6 enzyme inhibitory activities of the compound of the present invention were evaluated. Enzymes were used after preserved at −70° C. HDAC1 or HDAC6 enzyme inhibitory activity of the compound of the present invention was measured using HDAC-Glo™ I/II Assay kit (Promega) according to the following experimental method. The test compound diluted with assay buffer (24 mM Tris-HCl (pH 7.5), 1 mM MgCl2, 0.35 mM KCl, 135 mM NaCl, 0.6 mM Glutathione, 0.01% Tween-20) was added to a 384-well plate by each 2 μL. Then, HDAC1 or HDAC6 enzyme solution diluted with assay buffer was added thereto by each 4 μL, and the plate was incubated at room temperature for 60 min. After incubated, HDAC substrate-Developer solution prepared according to Promega protocol attached to the assay kit was added to the 384-well plate by each 2 μL, and the enzyme reaction was started. After reacting at room temperature for 20 min, luminescence level was measured using plate reader Envision (PerkinElmer). The inhibitory activity of each compound was calculated as a relative activity value when luminescence level in wells without enzyme is considered as 100% inhibition.

HDAC1 enzyme = biological target: T2, HDAC1 enzyme (Homo sapiens, UniProt Q13547); assay: HDAC1 enzyme inhibitory assay (HDAC-Glo I/II Assay kit); details: 1 μM test compound; wells without enzyme = 100% inhibition; read-out: HDAC1 inhibitory rate (%) (1 μM)
T2 construct: transducing full length HDAC1 and HDAC6 genes into Sf-9 insect cells; GST; purchased SignalChem; host or cells: Sf-9 insect cells
Description: as §1, §2

HDAC9 enzyme = biological target: T3, HDAC9 enzyme (Homo sapiens, UniProt Q9UKV0); assay: HDAC9 enzyme inhibitory assay (HDAC-Glo class IIa); details: 1 μM test compound; wells without enzyme = 100% inhibition; read-out: HDAC9 inhibitory rate (%) (1 μM)
T3 construct: transducing full length HDAC9 gene into Sf-9 insect cells; made in house; host or cells: Sf-9 insect cells
Description: HDAC9 Enzyme Inhibitory Assay
Enzyme was prepared by transducing full length HDAC9 gene into Sf-9 insect cells and purifying by Ni-NTA affinity column, and HDAC9 enzyme inhibitory activity was evaluated. Enzymes were used after preserved at −70° C. HDAC9 enzyme inhibitory activity of the test compound was measured using HDAC-Glo class IIa (Promega) according to the following experimental method. The test compound diluted with assay buffer (24 mM Tris-HCl (pH 7.5), 1 mM MgCl2, 0.35 mM KCl, 135 mM NaCl, 0.6 mM Glutathione, 0.01% Tween-20) was added to a 384-well plate by each 2 μL. Then, HDAC9 enzyme solution diluted with assay buffer was added thereto by each 2 μL, and the plate was incubated at room temperature for 60 min. After incubated, HDAC substrate-Developer solution prepared according to Promega protocol was added to the 384-well plate by each 4 μL, and the enzyme reaction was started. After reacting at room temperature for 20 min, luminescence level was measured using plate reader Envision (PerkinElmer). The inhibitory activity of each compound was calculated as a relative activity value when luminescence level in wells without enzyme is considered as 100% inhibition.

T2 sequence (Q13547 whole entry): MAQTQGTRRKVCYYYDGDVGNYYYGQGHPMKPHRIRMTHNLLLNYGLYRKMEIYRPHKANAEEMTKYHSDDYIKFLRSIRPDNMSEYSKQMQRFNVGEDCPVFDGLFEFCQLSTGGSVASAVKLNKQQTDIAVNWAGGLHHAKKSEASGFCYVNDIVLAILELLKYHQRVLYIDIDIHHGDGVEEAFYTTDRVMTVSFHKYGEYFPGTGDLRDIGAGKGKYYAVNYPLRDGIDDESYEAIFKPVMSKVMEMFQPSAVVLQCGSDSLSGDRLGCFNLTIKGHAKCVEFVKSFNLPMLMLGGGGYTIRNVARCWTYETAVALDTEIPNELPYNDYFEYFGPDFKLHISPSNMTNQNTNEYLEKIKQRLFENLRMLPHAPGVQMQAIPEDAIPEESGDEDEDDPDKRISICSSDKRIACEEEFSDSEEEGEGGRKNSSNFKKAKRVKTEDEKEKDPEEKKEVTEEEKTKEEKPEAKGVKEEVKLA
T3 sequence (Q9UKV0 whole entry, species assumed): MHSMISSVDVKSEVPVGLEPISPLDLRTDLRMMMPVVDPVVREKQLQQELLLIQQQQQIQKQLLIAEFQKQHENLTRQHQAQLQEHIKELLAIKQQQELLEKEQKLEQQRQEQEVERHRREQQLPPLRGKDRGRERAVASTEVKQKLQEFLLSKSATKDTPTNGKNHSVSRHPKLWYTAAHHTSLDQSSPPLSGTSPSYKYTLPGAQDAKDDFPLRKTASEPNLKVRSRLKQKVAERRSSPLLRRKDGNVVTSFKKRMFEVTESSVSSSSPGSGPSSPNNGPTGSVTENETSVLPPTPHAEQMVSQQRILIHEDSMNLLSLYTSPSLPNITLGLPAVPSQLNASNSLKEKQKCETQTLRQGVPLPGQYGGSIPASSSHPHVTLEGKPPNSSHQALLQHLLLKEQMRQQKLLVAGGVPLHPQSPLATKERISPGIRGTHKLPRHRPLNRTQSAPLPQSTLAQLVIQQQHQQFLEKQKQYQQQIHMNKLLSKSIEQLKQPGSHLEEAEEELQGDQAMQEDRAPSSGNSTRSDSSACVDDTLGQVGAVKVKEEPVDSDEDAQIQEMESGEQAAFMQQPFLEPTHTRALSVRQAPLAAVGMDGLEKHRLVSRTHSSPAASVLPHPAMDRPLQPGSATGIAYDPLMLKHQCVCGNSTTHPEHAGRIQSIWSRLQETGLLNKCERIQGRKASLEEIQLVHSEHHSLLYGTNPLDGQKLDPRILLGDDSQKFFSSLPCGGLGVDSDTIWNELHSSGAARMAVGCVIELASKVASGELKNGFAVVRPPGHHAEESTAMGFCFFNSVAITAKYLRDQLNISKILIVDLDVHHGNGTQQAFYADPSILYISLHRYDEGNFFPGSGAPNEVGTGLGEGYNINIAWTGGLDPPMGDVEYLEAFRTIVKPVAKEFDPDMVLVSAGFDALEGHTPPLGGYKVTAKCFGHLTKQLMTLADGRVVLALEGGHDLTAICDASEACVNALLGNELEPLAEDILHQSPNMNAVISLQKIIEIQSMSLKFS

Row | inhibition at 1 µM (HDAC6 enzyme) [%] | inhibition at 1 µM (HDAC1 enzyme) [%] | inhibition at 1 µM (HDAC9 enzyme) [%] | SMILES
1 | 28 | 15 | 52 | O=C1c2cc(-c3noc(C(F)(F)F)n3)ccc2CN1Cc1cccc(Oc2ccccc2)c1 [Example 10, 2-(3-phenoxybenzyl)-6-(5-(trifluoromethyl)-1,2,4-oxadiazol-3-yl)isoindolin-1-one]
2 | 95 | 26 | 82 | N#Cc1cccc(CN2Cc3ccc(-c4noc(C(F)(F)F)n4)cc3C2=O)c1 [Example 28, 3-((1-oxo-6-(5-(trifluoromethyl)-1,2,4-oxadiazol-3-yl)-1,3-dihydro-2H-isoindol-2-yl)methyl)benzonitrile]
3 | 94 | 40 | 92 | COc1cc(CN2Cc3ccc(-c4noc(C(F)(F)F)n4)cc3C2=O)ccc1OCC1CCCO1 (stereo not drawn) [Example 31, 2-(3-methoxy-4-(tetrahydrofuran-2-ylmethoxy)benzyl)-6-(5-(trifluoromethyl)-1,2,4-oxadiazol-3-yl)isoindolin-1-one]
